Results reported in US7186710B2, “Phthalazinones” (Altana Pharma AG, priority 2001, dated 2007).

Tests used:
PDE7A1 = molecular target: T1, PDE7A1 (Homo sapiens, UniProt Q13946); experiment: Inhibition of PDE7 activity, [3H]cAMP SPA enzyme assay with recombinant PDE7A1; assay type: biochemical; details: recombinant PDE7A1 from SF21 insect cells, 0.5 μM cAMP; for IC50: read-out: PDE7 −logIC50 (converted)
T1 construct: made in house; host or cells: SF21 insect cells (baculovirus, pCRBac)
Description: (§1) Method for Measuring Inhibition of PDE4 and PDE7 Activities
(§2) The cDNA for PDE7A1 (Genebank Acc. No. L12052) was isolated, using RT-PCR, from total cellular RNA derived from the T cell line CCRF-CEM and cloned into the cloning vector pCR2.1 (invitrogen, Groningen, NL) under standard conditions (the manufacturer's instructions). For expression in insect cells, the cDNA was subcloned into the baculo expression vector pCRBac (invitrogen, Groningen, NL). The cDNA for PDE4D3 was a gift of Marco Conti (Stanford University, USA). The ORF (Genebank Acc. No. U50159) was cut from the original pCMV5 vector with the restriction enzymes EcoRI and XbaI and subcloned in the expression vector pBacPak9 (Clontech, Palo Alto).
(§3) The recombinant baculoylrus was prepared by means of homologous recombination in SF9 insect cells. The expression plasmids were cotransfected with Bac-N-Blue (invitrogen, Groningen, NL) or Baculo-Gold DNA (Pharmingen, Hamburg) using a standard protocol (Pharmingen, Hamburg). Wt virus-free recombinant virus supernatants were selected using plaque assay methods. After that, high-titre virus supernatants were prepared by amplifying 3 times. PDEs were expressed in SF21 cells by infecting 2×10^6 cells/ml with an MOI (multiplicity of infection) between 2 and 5 in serum-free SF900 medium (Life Technologies, Paisley, UK). The cells were cultured at 28° C. for 48 hours, after which they were pelleted for 5–10 min at 1000 g and 4° C. In the case of PDE7A1 cells were cultured in spinner flasks at a rotational speed of 75 rpm.
(§4) The SF21 insect cells were resuspended, at a concentration of approx. 10^7 cells/ml, in ice-cold (4° C.) homogenization buffer (20 mM Tris, pH 8.2, containing the following additions: 140 mM NaCl, 3.8 mM KCl, 1 mM EGTA, 1 mM MgCl2, 1 mM β-mercaptoethanol, 2 mM benzamidine, 0.4 mM Pefablock, 10 μM leupeptin, 10 μM pepstatin A, 5 μM trypsin inhibitor) and disrupted by ultrasonication. The homogenate was then centrifuged for 10 min at 1000×g and the supernatant was stored at −80° C. until subsequent use (see below). The protein content was determined by the Bradford method (BioRad, Munich) using BSA as the standard.
(§5) PDE7A1 and PDE4D3 activities were inhibited by the said compounds in a modified SPA (scintillation proximity assay) test, supplied by Amersham Pharmacia Biotech (see procedural instructions “phosphodiesterase [3H]cAMP SPA enzyme assay, code TRKQ 7090”), carried out in 96-well microtitre plates (MTP's). The test volume is 100 μl and contains 20 mM Tris buffer (pH 7.4), 0.1 mg of BSA (bovine serum albumin)/ml, 5 mM Mg^2+, 0.5 μM cAMP (including about 50,000 cpm of [3H]cAMP), 2 μl of the respective substance dilution in DMSO and sufficient recombinant PDE (1000×g supernatant, see above) to ensure that 15–20% of the cAMP is converted under the said experimental conditions. After a preincubation of 5 min at 37° C., the reaction is started by adding the substrate (cAMP) and the assays are incubated for a further 15 min; after that, they are stopped by adding SPA beads (50 μl). In accordance with the manufacturer's instructions, the SPA beads had preylously been resuspended in water and then diluted 1:3 (v/v); the diluted solution also contains 3 mM IBMX. After the beads have been sedimented (>30 min), the MTP's are analyzed in commercially available measuring appliances and the corresponding IC50 values of the compounds for the inhibition of PDE activities are determined from the concentration-effect curves by means of non-linear regression.

PDE4D3 = molecular target: T2, PDE4D3 (Homo sapiens, UniProt Q08499); experiment: Inhibition of PDE4 activity, [3H]cAMP SPA enzyme assay with recombinant PDE4D3; assay type: biochemical; details: recombinant PDE4D3 from SF21 insect cells, 0.5 μM cAMP; for IC50: read-out: PDE4 −logIC50 (converted)
T2 construct: made in house; host or cells: SF21 insect cells (baculovirus, pBacPak9)
T2 sequence (Q08499 1-673 isoform Q08499-2): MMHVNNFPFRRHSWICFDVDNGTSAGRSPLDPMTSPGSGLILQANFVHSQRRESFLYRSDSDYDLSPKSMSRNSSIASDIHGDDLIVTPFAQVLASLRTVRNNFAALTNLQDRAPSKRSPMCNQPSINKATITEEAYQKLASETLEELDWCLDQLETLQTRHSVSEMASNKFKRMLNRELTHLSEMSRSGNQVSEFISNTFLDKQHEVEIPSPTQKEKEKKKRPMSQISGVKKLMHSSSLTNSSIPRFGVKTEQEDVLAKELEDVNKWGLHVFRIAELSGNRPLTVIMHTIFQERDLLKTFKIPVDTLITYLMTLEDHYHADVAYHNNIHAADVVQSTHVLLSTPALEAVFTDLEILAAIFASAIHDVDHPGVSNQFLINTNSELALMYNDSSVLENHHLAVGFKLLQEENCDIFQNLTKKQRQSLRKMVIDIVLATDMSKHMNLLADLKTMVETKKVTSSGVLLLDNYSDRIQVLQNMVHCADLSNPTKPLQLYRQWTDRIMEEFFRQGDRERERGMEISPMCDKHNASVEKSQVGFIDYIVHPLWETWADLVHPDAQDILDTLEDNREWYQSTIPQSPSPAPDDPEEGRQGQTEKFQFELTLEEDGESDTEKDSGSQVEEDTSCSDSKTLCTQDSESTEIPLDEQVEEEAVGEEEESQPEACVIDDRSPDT
Description: as §1, §2, §3, §4, §5

T1 sequence (Q13946 whole entry): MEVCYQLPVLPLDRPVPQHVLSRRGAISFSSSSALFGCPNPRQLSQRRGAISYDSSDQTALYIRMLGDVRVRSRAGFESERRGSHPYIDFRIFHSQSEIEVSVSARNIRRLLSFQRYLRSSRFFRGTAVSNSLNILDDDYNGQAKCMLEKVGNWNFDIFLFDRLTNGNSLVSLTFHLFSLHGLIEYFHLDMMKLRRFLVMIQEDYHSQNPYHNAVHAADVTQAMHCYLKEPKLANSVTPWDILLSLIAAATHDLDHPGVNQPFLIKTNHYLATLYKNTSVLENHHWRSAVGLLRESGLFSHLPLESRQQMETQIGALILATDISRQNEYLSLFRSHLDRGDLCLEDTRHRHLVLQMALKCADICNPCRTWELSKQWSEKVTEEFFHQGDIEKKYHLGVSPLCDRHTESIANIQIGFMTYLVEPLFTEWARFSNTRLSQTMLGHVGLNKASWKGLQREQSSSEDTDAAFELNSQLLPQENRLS

Row | IC50 (PDE7A1) [µM] | melting point | IC50 (PDE4D3) [µM] | PDE7 −logIC50 (mol/l) (PDE7A1) | PDE4 −logIC50 (mol/l) (PDE4D3) | SMILES
1 | 0.107 | 198 to 199 °C | 0.00398 | – | – | COc1ccc(C2=NN(C3CCN(S(=O)(=O)c4ccc(C)cc4)CC3)C(=O)[C@H]3CC=CC[C@@H]23)cc1Cl (relative stereo) [Compound 2, (cis)-4-(3-Chloro-4-methoxy-phenyl)-2-[1-(toluene-4-sulfonyl)-piperidin-4-yl]-4a,5,8,8a-tetrahydro-2H-phthalazin-1-one]
2 | 0.269 | 217 to 219 °C | 0.000891 | – | – | COc1ccc(C2=NN(CCCCn3ccnc3)C(=O)[C@H]3CC=CC[C@@H]23)cc1Cl.Cl (relative stereo) [Compound 11, (cis)-4-(3-Chloro-4-methoxy-phenyl)-2-(4-imidazol-1-yl-butyl)-4a,5,8,8a-tetrahydro-2H-phthalazin-1-one hydrochloride]
3 | 0.0661 | 198 to 201 °C | 0.0138 | – | – | COc1ccc(C2=NN(c3ccc(C(=O)N4CCN(CCN(C)C)CC4)cc3)C(=O)[C@H]3CC=CC[C@@H]23)cc1Cl.Cl.Cl (relative stereo) [Compound 5, (cis)-4-(3-Chloro-4-methoxy-phenyl)-2-(4-{1-[4-(2-dimethylamino-ethyl)-piperazin-1-yl]-methanoyl}-phenyl)-4a,5,8,8a-tetrahydro-2H-phthalazin-1-one dihydrochloride]
4 | 0.0288 | 196 to 197 °C | 0.00257 | – | – | COc1ccc(C2=NN(c3ccc4[nH]ncc4c3)C(=O)[C@H]3CC=CC[C@@H]23)cc1Cl.Cl (relative stereo) [Compound 9, (cis)-4-(3-Chloro-4-methoxy-phenyl)-2-(1H-indazol-5-yl)-4a,5,8,8a-tetrahydro-2H-phthalazin-1-one hydrochloride]
5 | 0.38 | 201 to 203 °C | 0.0457 | – | – | COc1ccc(C2=NN(c3ccc(C(=O)O)cc3)C(=O)[C@H]3CC=CC[C@@H]23)cc1F (relative stereo) [Compound 13, (cis)-4-[4-(3-Fluoro-4-methoxy-phenyl)-1-oxo-4a,5,8,8a-tetrahydro-1H-phthalazin-2-yl]-benzoic acid]
6 | 0.0186 | – | 0.000776 | – | – | COc1ccc(C2=NN(C3CCCC3)C(=O)[C@H]3CC=CC[C@@H]23)cc1Cl (relative stereo) [Compound 10, (cis)-4-(3Chloro-4-methoxy-phenyl)-2-cyclopentyl-4a,5,8,8a-tetrahydro-2H-phthalazin-1-one]
7 | 0.105 | 156 to 157 °C | 0.00813 | – | – | COc1ccc(C2=NN(c3ccc4ncsc4c3)C(=O)[C@@H]3CC=CC[C@H]23)cc1Cl (relative stereo) [Compound 7, (cis)-2-Benzothiazol-6-yl-4-(3-chloro-4-methoxy-phenyl)-4a,8,8a-tetrahydro-2H-phthalazin-1-one]
8 | 0.0417 | 244 °C (dec.) | 0.00245 | – | – | COc1ccc(C2=NN(C3CCN(Cc4ccncc4)CC3)C(=O)[C@H]3CC=CC[C@@H]23)cc1Cl.Cl (relative stereo) [Compound 4, (cis)-4-(3-Chloro-4-methoxy-phenyl)-2-(1-pyridin-4-ylmethyl-piperidin-4-yl)-4a,5,8,8a-tetrahydro-2H-phthalazin-1-one hydrochloride]
9 | 0.0229 | – | 0.00229 | – | – | COc1ccc(C2=NN(C3CCN(C(=O)N4CCOCC4)CC3)C(=O)[C@H]3CC=CC[C@@H]23)cc1Cl (relative stereo) [Compound 1, (cis)-4-(3-Chloro-4-methoxy-phenyl)-2-[1-(1-morpholin-4-yl-methanoyl)-piperidin-4-yl]-4a,5,8,8a-tetrahydro-2H-phthalazin-1-one]
10 | – | – | – | 7.08 | 7.64 | COc1ccc(C2=NN(c3nc(C)ccc3C(F)(F)F)C(=O)[C@H]3CC=CC[C@@H]23)cc1Cl (relative stereo) [Compound 6]
11 | – | 222 to 224 °C | – | – | – | COc1ccc(C2=NN(c3ccc(C(=O)O)cc3)C(=O)[C@H]3CC=CC[C@@H]23)cc1Cl (relative stereo) [Compound 14, (cis)-4-{4-(3-chloro-4-methoxyphenyl)-1-oxo-4a,5,8,8a-tetrahydro-1H-phthalazin-2-yl}-benzoic acid]
12 | – | 216 to 218 °C | – | – | – | COc1ccc(C2=NN(C3CCN(C(=O)N4CCNC4=O)CC3)C(=O)[C@H]3CC=CC[C@@H]23)cc1Cl (relative stereo) [Compound 22, cis-4-(3-Chloro-4-methoxy-phenyl)-2-{1-[1-(2-oxo-imidazolidin-1-yl)-methanoyl]-piperidin-4-yl}-4a,5,8,8a-tetrahydro-2H-phthalazin-1-one]
13 | 0.0417 | – | 0.0219 | – | – | COc1ccc(C2=NN(c3cc(C)c4c(C)nn(C)c4n3)C(=O)[C@H]3CC=CC[C@@H]23)cc1Cl (relative stereo) [Compound 17, (cis)-4-(3-Chloro-4-methoxy-phenyl)-2-(1,3,4-trimethyl-1H-pyrazolo[3,4-b]pyridin-6-yl)-4a,5,8,8a-tetrahydro-2H-phthalazin-1-one]
14 | 0.0891 | 212 to 213 °C | 0.00891 | – | – | COc1ccc(C2=NN(c3ccc4c(c3)COC4=O)C(=O)[C@H]3CC=CC[C@@H]23)cc1Cl (relative stereo) [Compound 8, (cis)-4-(3-Chloro-4-methoxy-phenyl)-2-(1-oxo-1,3-dihydro-isobenzofuran-5-yl)-4a,5,8,8a-tetrahydro-2H-phthalazin-1-one]
15 | 0.182 | 206 to 208 °C | 0.00562 | – | – | COc1ccc(C2=NN(C3CCN(C(C)=O)CC3)C(=O)[C@@H]3CC=CC[C@H]23)cc1Cl (relative stereo) [Compound 3, (cis)-2-(1-Acetyl-piperidin-4-yl)-4-(3-chloro-4-methoxy-phenyl)-4a,5.8,8a-tetrahydro-2H-phthalazin-1-one]
16 | 0.0776 | – | 0.0234 | – | – | COc1ccc(C2=NN(c3nc(-c4cccs4)ns3)C(=O)[C@H]3CC=CC[C@@H]23)cc1Cl (relative stereo) [Compound 18, (cis)-4-(3-Chloro-4-methoxy-phenyl)-2-(3-thiophen-2-yl-[1,2,4]thiadiazol-5-yl)-4a,5,8,8a-tetrahydro-2H-phthalazin-1-one]

Row | SMILES | IC50 (PDE7A1) [µM] | melting point | IC50 (PDE4D3) [µM] | PDE7 −logIC50 (mol/l) (PDE7A1) | PDE4 −logIC50 (mol/l) (PDE4D3)
17 | COc1ccc(C2=NN(CCCCOc3ccc(C(=O)O)cc3)C(=O)[C@H]3CC=CC[C@@H]23)cc1Cl (relative stereo) [Compound 12, (cis)-4-{4-[4-(3-Chloro-4-methoxy-phenyl)-1-oxo-4a,5,8,8a-tetrahydro-1H-phthalazin-2-yl]-butoxy}benzoic acid] | 0.0977 | 169 to 171 °C | 0.00646 | – | –
